Test system: Trichoderma harzianum
Experiment: In vitro antifungal activity assay in 96-well microtiter plates (mould growth reduction, Colby synergy)
Type: cell-based
Procedure: The following compositions are tested: • Control (no active ingredient), • 1.25 ppm natamycin (DSM Food Specialties, Delft, The Netherlands), • 0.5, 1.0, 1.25 or 1.5 ppm thiabendazole, • 1.25 ppm natamycin+0.5 ppm thiabendazole, • 1.25 ppm natamycin+1.0 ppm thiabendazole, • 1.25 ppm natamycin+1.25 ppm thiabendazole, • 1.25 ppm natamycin+1.5 ppm thiabendazole. […] Subsequently, 100 μl of a Trichoderma harzianum suspension prepared in PCB medium is used to inoculate each well with 5.0×10^3 spores/ml. […] After incubation of the microtiter plates for 3, 5, 10 and 17 days at 25° C., the in vitro antifungal activity (%) of the individual active ingredients was assessed by calculating the reduction in mould growth observed in the presence of the active ingredient in comparison to the mould growth observed in the absence of the active ingredient. The expected antifungal activity (E in %) of the active ingredient combination was calculated according to the Colby equation (Colby, 1967): E=X+Y−[(X·Y)/100] wherein X and Y are the observed antifungal activities (in %) of the individual active ingredients X and Y, respectively. If the observed antifungal activity (O in %) of the combination exceeds the expected antifungal activity (E in %) of the combination and the resulting synergy factor O/E is thus >1.0, the combined application of the active ingredients leads to a synergistic antifungal effect.

Measured: Observed antifungal activity O (%)

C[C@@H]1C/C=C/C=C/C=C/C=C/[C@H](O[C@@H]2O[C@H](C)[C@@H](O)[C@H](N)[C@@H]2O)C[C@@H]2O[C@](O)(C[C@@H](O)C[C@H]3O[C@@H]3/C=C/C(=O)O1)C[C@H](O)[C@H]2C(=O)O [Natamycin, natamycin]
0%: Natamycin 1.25 ppm, 3 days incubation at 25° C. | Natamycin 1.25 ppm, 5 days incubation at 25° C. | Natamycin 1.25 ppm, 10 days incubation at 25° C. | Natamycin 1.25 ppm, 17 days incubation at 25° C.

c1ccc2[nH]c(-c3cscn3)nc2c1 [Thiabendazole, 4-(1H-1,3-benzodiazol-2-yl)-1,3-thiazole]
0%: Thiabendazole 0.5 ppm, 3 days incubation at 25° C. | Thiabendazole 1.0 ppm, 5 days incubation at 25° C. | Thiabendazole 1.25 ppm, 5 days incubation at 25° C. | Thiabendazole 1.25 ppm, 10 days incubation at 25° C. | Thiabendazole 1.5 ppm, 10 days incubation at 25° C. | Thiabendazole 1.5 ppm, 17 days incubation at 25° C.

Source: patent publication US20150150159A1, “METHOD FOR CONTROLLING FUNGAL DISEASES IN MUSHROOM PRODUCTION” (DSM IP ASSETS B.V., priority 2012, published 2015)
